From paper PMC8839448, “Novel Pyridothienopyrimidine Derivatives: Design, Synthesis and Biological Evaluation as Antimicrobial and Anticancer Agents” (Molecules, 2022)
Converted amounts (≈) assume the structure as drawn.

Legend:
[1] = system: Saccharomycese cerevisiae; experiment: In vitro antifungal activity, MIC by broth dilution; assay type: cell-based; conditions: Saccharomyces cerevisiae, yeast, read-out: MIC S. cerevisiae
[2] = system: hepatocellular carcinoma (HepG2) cells; experiment: Cytotoxicity, MTT assay; assay type: cell-based; conditions: Homo sapiens, read-out: Cytotoxic activity IC50 HepG2
[3] = system: breast cancer (MCF-7) cells; experiment: Cytotoxicity, MTT assay; assay type: cell-based, human; conditions: Homo sapiens, MCF7, MCF7 cells, read-out: Cytotoxic activity IC50 MCF7
[4] = system: Bacillus cereus 33018; experiment: In vitro antibacterial activity, MIC by broth dilution; assay type: cell-based; conditions: Gram +ve bacteria, read-out: MIC B. cereus
[5] = system: Salmonella typhimurium 14028; experiment: as above; assay type: cell-based; conditions: Salmonella enterica, Gram −ve bacteria, read-out: MIC S. typhimurium
[6] = system: Candida albicans 10231; experiment: In vitro antifungal activity, MIC by broth dilution; assay type: cell-based; conditions: yeast, read-out: MIC C. albicans
[7] = system: Aspergillus flavus; experiment: as above; assay type: cell-based; conditions: fungi
[8] = system: Bacillus subtilis 6633; experiment: In vitro antibacterial activity, MIC by broth dilution; assay type: cell-based; conditions: Gram +ve bacteria, read-out: MIC B. subtilis
[9] = system: Staphylococcus aureus 25923; experiment: as above; assay type: cell-based; conditions: Gram +ve bacteria, read-out: MIC S. aureus
[10] = system: Aspergillus niger EM77 (KF774181); experiment: In vitro antifungal activity, MIC by broth dilution; assay type: cell-based; conditions: fungi
[11] = system: Escherichia coli 8739; experiment: In vitro antibacterial activity, MIC by broth dilution; assay type: cell-based; conditions: Gram −ve bacteria
[12] = system: Candida tropicals 750; experiment: In vitro antifungal activity, MIC by broth dilution; assay type: cell-based; conditions: yeast, read-out: MIC C. tropicals
[13] = system: all the tested yeasts and fungi strains; experiment: Antifungal MIC, range over the panel; assay type: cell-based
[14] = system: five bacterial strains; experiment: Antibacterial MIC, range over the panel; assay type: cell-based

Cc1cc(C)c2c(n1)sc1c(=O)[nH]c(=O)[nH]c12 [Compound 2a, 7,9-Dimethylpyrido[3′,2′:4,5]thieno[3,2-d]pyrimidine-2,4(1H,3H)-dione]
MIC [1]: 16 µg/mL (≈ 64.7 µM)
IC50 [2]: 56.6 ± 3.64 µM
IC50 [3]: 64.3 ± 2.91 µM
MIC [4]: 64 µg/mL (≈ 259 µM)
MIC [5]: > 128 µg/mL
MIC [6]: 128 µg/mL (≈ 518 µM)
MIC [7]: > 128 µg/mL
MIC [8]: > 128 µg/mL
MIC [9]: > 128 µg/mL
MIC [10]: > 128 µg/mL
MIC [11]: > 128 µg/mL
MIC [12]: 128 µg/mL (≈ 518 µM)

Cc1ccc(-c2cc(-c3ccccc3)nc3sc4c(=O)[nH]c(=O)[nH]c4c23)cc1 [Compound 2b, 7-Phenyl-9-(p-tolyl)pyrido[3′,2′:4,5]thieno[3,2-d]pyrimidine-2,4(1H,3H)-dione]
MIC [1]: 32 µg/mL (≈ 83 µM)
IC50 [2]: 33.2 ± 1.79 µM
IC50 [3]: 42.4 ± 2.24 µM
MIC [4]: 64 µg/mL (≈ 166 µM)
MIC [5]: 64 µg/mL (≈ 166 µM)
MIC [6]: 64 µg/mL (≈ 166 µM)
MIC [7]: 32 µg/mL (≈ 83 µM)
MIC [8]: 128 µg/mL (≈ 332 µM)
melting point: 316 to 317 °C
MIC [9]: 64 µg/mL (≈ 166 µM)
MIC [10]: 32 µg/mL (≈ 83 µM)
MIC [11]: 128 µg/mL (≈ 332 µM)
MIC [12]: 32 µg/mL (≈ 83 µM)

Cc1ccc(-c2cc(-c3ccccc3)nc3sc4c(Cl)nc(Cl)nc4c23)cc1 [Compound 3b, 2,4-Dichloro-7-phenyl-9-(p-tolyl)pyrido[3′,2′:4,5]thieno[3,2-d]pyrimidine]
MIC [1]: 64 µg/mL (≈ 152 µM)
IC50 [2]: 11.3 ± 0.65 µM
IC50 [3]: 24.7 ± 1.32 µM
MIC [4]: 32 µg/mL (≈ 75.8 µM)
MIC [5]: 32 µg/mL (≈ 75.8 µM)
MIC [6]: 32 µg/mL (≈ 75.8 µM)
MIC [7]: 32 µg/mL (≈ 75.8 µM)
MIC [8]: 8 µg/mL (≈ 18.9 µM)
melting point: 220 °C
MIC [9]: 32 µg/mL (≈ 75.8 µM)
MIC [10]: 16 µg/mL (≈ 37.9 µM)
MIC [11]: 16 µg/mL (≈ 37.9 µM)
MIC [12]: 16 µg/mL (≈ 37.9 µM)

Cc1ccc(-c2cc(-c3ccccc3)nc3sc4c(=O)[nH]c(CCl)nc4c23)cc1 [Compound 4b, 2-(Chloromethyl)-7-phenyl-9-(p-tolyl)pyrido[3′,2′:4,5]thieno[3,2-d]pyrimidin-4(3H)-one]
MIC range against the tested yeasts and fungi strains [13]: 4 to 16 µg/mL
MIC [1]: 8 µg/mL (≈ 19.1 µM)
IC50 [2]: 36.5 ± 1.82 µM
IC50 [3]: 43.3 ± 2.28 µM
MIC [4]: 16 µg/mL (≈ 38.3 µM)
MIC [5]: 128 µg/mL (≈ 306 µM)
MIC [6]: 8 µg/mL (≈ 19.1 µM)
MIC [7]: 16 µg/mL (≈ 38.3 µM)
MIC [8]: 128 µg/mL (≈ 306 µM)
melting point: 310 °C
MIC [9]: 8 µg/mL (≈ 19.1 µM)
MIC [10]: 16 µg/mL (≈ 38.3 µM)
MIC [11]: 128 µg/mL (≈ 306 µM)
MIC [12]: 16 µg/mL (≈ 38.3 µM)

Cc1ccc(-c2cc(-c3ccccc3)nc3sc4c(=O)[nH]c(CN5CCN(C)CC5)nc4c23)cc1 [Compound 5b, 2-((4-Methylpiperazin-1-yl)methyl)-7-phenyl-9-(p-tolyl)pyrido[3′,2′:4,5]thieno[3,2-d]pyrimidin-4(3H)-one]
MIC [1]: 16 µg/mL (≈ 33.2 µM)
IC50 [2]: 10.2 ± 0.29 µM
IC50 [3]: 21.1 ± 1.16 µM
MIC [4]: 16 µg/mL (≈ 33.2 µM)
MIC [5]: 32 µg/mL (≈ 66.4 µM)
MIC [6]: 64 µg/mL (≈ 133 µM)
MIC [7]: 32 µg/mL (≈ 66.4 µM)
MIC [8]: 8 µg/mL (≈ 16.6 µM)
melting point: 260 to 261 °C
MIC [9]: 8 µg/mL (≈ 16.6 µM)
MIC [10]: 64 µg/mL (≈ 133 µM)
MIC [11]: 32 µg/mL (≈ 66.4 µM)
MIC [12]: 16 µg/mL (≈ 33.2 µM)

Cc1ccc(-c2cc(-c3ccccc3)nc3sc4c(c23)NC2(CCCCC2)NC4=O)cc1 [Compound 6d, 7′-Phenyl-9′-(p-tolyl)-1′H-spiro[cyclohexane-1,2′-pyrido[3′,2′:4,5]thieno[3,2-d]pyrimidin]-4′(3′H)-one]
MIC [1]: 32 µg/mL (≈ 72.8 µM)
IC50 [2]: 4.45 ± 0.22 µM
IC50 [3]: 21.7 ± 0.7 µM
MIC [4]: 8 µg/mL (≈ 18.2 µM)
MIC [5]: 32 µg/mL (≈ 72.8 µM)
MIC [6]: 64 µg/mL (≈ 146 µM)
MIC [7]: 32 µg/mL (≈ 72.8 µM)
MIC range against the tested bacterial strains [14]: 8 to 32 µg/mL
MIC [8]: 32 µg/mL (≈ 72.8 µM)
melting point: 263 °C
MIC [9]: 8 µg/mL (≈ 18.2 µM)
MIC [10]: 16 µg/mL (≈ 36.4 µM)
MIC [11]: 32 µg/mL (≈ 72.8 µM)
MIC [12]: 64 µg/mL (≈ 146 µM)

Cc1cc(C)c2c3c(sc2n1)C(=S)NC1(CCCC1)N3 [Compound 7a, 7′,9′-Dimethyl-1′H-spiro[cyclopentane-1,2′-pyrido[3′,2′:4,5]thieno[3,2-d]pyrimidine]-4′(3′H)-thione]
MIC range against the tested yeasts and fungi strains [13]: 4 to 16 µg/mL
MIC [1]: 8 µg/mL (≈ 26.4 µM)
IC50 [2]: 26.1 ± 1.89 µM
IC50 [3]: 28.1 ± 0.92 µM
MIC [4]: 8 µg/mL (≈ 26.4 µM)
MIC [5]: 16 µg/mL (≈ 52.7 µM)
MIC [6]: 16 µg/mL (≈ 52.7 µM)
MIC [7]: 16 µg/mL (≈ 52.7 µM)
MIC [8]: > 128 µg/mL
MIC [9]: 4 µg/mL (≈ 13.2 µM)
MIC [10]: 16 µg/mL (≈ 52.7 µM)
MIC [11]: 8 µg/mL (≈ 26.4 µM)
MIC [12]: 16 µg/mL (≈ 52.7 µM)

Cc1ccc(-c2cc(-c3ccccc3)nc3sc4c(c23)NC2(CCCC2)NC4=S)cc1 [Compound 7b, 7′-Phenyl-9′-(p-tolyl)-1′H-spiro[cyclopentane-1,2′-pyrido[3′,2′:4,5]thieno[3,2-d]pyrimidine]-4′(3′H)-thione]
MIC [1]: 32 µg/mL (≈ 72.5 µM)
IC50 [2]: 39.7 ± 1.89 µM
IC50 [3]: 41.6 ± 2.2 µM
MIC [4]: 64 µg/mL (≈ 145 µM)
MIC [5]: 128 µg/mL (≈ 290 µM)
MIC [6]: 64 µg/mL (≈ 145 µM)
MIC [7]: 64 µg/mL (≈ 145 µM)
MIC range against the tested bacterial strains [14]: 64 to 128 µg/mL
MIC [8]: 64 µg/mL (≈ 145 µM)
MIC [9]: 64 µg/mL (≈ 145 µM)
MIC [10]: 128 µg/mL (≈ 290 µM)
MIC [11]: 64 µg/mL (≈ 145 µM)
MIC [12]: 64 µg/mL (≈ 145 µM)

Cc1cc(C)c2c3c(sc2n1)C(=S)NC1(CCCCC1)N3 [Compound 7c, 7′,9′-Dimethyl-1′H-spiro[cyclohexane-1,2′-pyrido[3′,2′:4,5]thieno[3,2-d]pyrimidine]-4′(3′H)-thione]
MIC range against the tested yeasts and fungi strains [13]: 4 to 16 µg/mL
MIC [1]: 8 µg/mL (≈ 25.2 µM)
IC50 [2]: 10.3 ± 0.31 µM
IC50 [3]: 20.9 ± 0.93 µM
MIC [4]: 8 µg/mL (≈ 25.2 µM)
MIC [5]: 32 µg/mL (≈ 101 µM)
MIC [6]: 16 µg/mL (≈ 50.4 µM)
MIC [7]: 4 µg/mL (≈ 12.6 µM)
MIC [8]: 32 µg/mL (≈ 101 µM)
melting point: 201 °C
MIC [9]: 32 µg/mL (≈ 101 µM)
MIC [10]: 16 µg/mL (≈ 50.4 µM)
MIC [11]: 32 µg/mL (≈ 101 µM)
MIC [12]: 8 µg/mL (≈ 25.2 µM)

Cc1ccc(-c2cc(-c3ccccc3)nc3sc4c(c23)NC2(CCCCC2)NC4=S)cc1 [Compound 7d, 7′-Phenyl-9′-(p-tolyl)-1′H-spiro[cyclohexane-1,2′-pyrido[3′,2′:4,5]thieno[3,2-d]pyrimidine]-4′(3′H)-thione]
MIC [1]: 32 µg/mL (≈ 70.2 µM)
IC50 [2]: 23.2 ± 0.35 µM
IC50 [3]: 26.6 ± 1.62 µM
MIC [4]: 64 µg/mL (≈ 140 µM)
MIC [5]: 32 µg/mL (≈ 70.2 µM)
MIC [6]: 32 µg/mL (≈ 70.2 µM)
MIC [7]: 64 µg/mL (≈ 140 µM)
MIC [8]: 64 µg/mL (≈ 140 µM)
melting point: 178 to 179 °C
MIC [9]: 4 µg/mL (≈ 8.78 µM)
MIC [10]: 64 µg/mL (≈ 140 µM)
MIC [11]: 32 µg/mL (≈ 70.2 µM)
MIC [12]: 64 µg/mL (≈ 140 µM)

Cc1cc(C)c2c3c(sc2n1)C(SCC(N)=O)=NC1(CCCCC1)N3 [Compound 8a, 2-((7′,9′-Dimethyl-1′H-spiro[cyclohexane-1,2′-pyrido[3′,2′:4,5]thieno[3,2-d]pyrimidin]-4′-yl)sulfanyl)acetamide]
MIC [1]: 16 µg/mL (≈ 42.7 µM)
IC50 [2]: 6.78 ± 0.73 µM
IC50 [3]: 20.9 ± 1.46 µM
MIC [4]: 8 µg/mL (≈ 21.4 µM)
MIC [5]: 32 µg/mL (≈ 85.4 µM)
MIC [6]: 64 µg/mL (≈ 171 µM)
MIC [7]: 16 µg/mL (≈ 42.7 µM)
MIC range against the tested bacterial strains [14]: 8 to 32 µg/mL
MIC [8]: 16 µg/mL (≈ 42.7 µM)
melting point: 160 to 161 °C
MIC [9]: 8 µg/mL (≈ 21.4 µM)
MIC [10]: 16 µg/mL (≈ 42.7 µM)
MIC [11]: 32 µg/mL (≈ 85.4 µM)
MIC [12]: 16 µg/mL (≈ 42.7 µM)
